US6004933A, “Cysteine protease inhibitors” (Cortech Inc., priority 1998, dated 1999)
Where two headings read alike, the source gives them in different places.

Legend:
ICE (Caspase 1) [1] = molecular target: T1, ICE (Caspase 1) (Homo sapiens, UniProt P29466); assay: THP-1 assay: IL-1β release after LPS stimulation (assay for ICE inhibition); assay type: cell-based; settings: for IC50: LPS 1 ug/ml, 4 hr, ELISA, read-out: IC50 of reduction of IL1β release from THP1 cell line
T1 construct: endogenous in cells; host or cells: THP-1
T1 sequence (P29466 120-297 limits assumed): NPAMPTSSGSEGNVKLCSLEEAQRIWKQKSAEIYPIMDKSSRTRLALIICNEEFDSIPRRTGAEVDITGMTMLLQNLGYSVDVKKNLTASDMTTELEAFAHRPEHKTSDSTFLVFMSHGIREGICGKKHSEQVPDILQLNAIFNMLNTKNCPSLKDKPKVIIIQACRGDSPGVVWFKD
T1 sequence (P29466 317-404 limits assumed): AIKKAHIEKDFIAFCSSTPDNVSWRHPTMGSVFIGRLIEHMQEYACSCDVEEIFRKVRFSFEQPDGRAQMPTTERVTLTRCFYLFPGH
Source text: (§1) To examine the ability of the caspase family inhibitors, CQ-0010 and CQ-0011, to inhibit human IL-1β production, two different assays were employed. In the first, the human monocytic cell line, THP-1, was stimulated with E. coli lipopolysaccharide (LPS serotype 0127-88; Sigma Chemical Co., St. Louis, Mo.) in the presence and absence of the inhibitors. This cell line synthesizes and secretes IL-1β and TNFα as well as other cytokines upon LPS stimulation. The second assay used freshly-isolated human whole blood similarly stimulated with LPS.
(§2) Two×10^6 THP-1 cells were added to 24 well plates in 1 ml RPMI supplemented with 1% FCS, glutamine and 5×10^-5 M mercaptoethanol. Two-fold serial dilutions of the inhibitors, CQ-0010, CQ-0011 and the commmercially available Ac-YVAD-CHO (Biomol Research Laboratories Inc., Plymouth Meeting, Pa.), were preincubated with the cells for 15 min at 37° C. LPS was then added to a final concentration of 1 ug/ml and the plates incubated for 4 hr at 37° C. All incubations were carried out in a humidified incubator with 5% CO2 in air.
(§3) Supernatants were harvested after 4 hr and assayed by ELISA for the presence of TNFα and IL-1β using commercially available kits (PerSeptive Biosystems, Framingham, Mass. and R&D Systems, Minneapolis, Minn., respectively).

granzyme B = granzyme B (Homo sapiens, UniProt P10144); assay: Granzyme B inhibition, photometric, Succ-AAPD-pNA; assay type: biochemical; settings: 20 μM Succ-AAPD-pNA, 1 mM DTT
granzyme B, sequence (P10144 21-247, species assumed): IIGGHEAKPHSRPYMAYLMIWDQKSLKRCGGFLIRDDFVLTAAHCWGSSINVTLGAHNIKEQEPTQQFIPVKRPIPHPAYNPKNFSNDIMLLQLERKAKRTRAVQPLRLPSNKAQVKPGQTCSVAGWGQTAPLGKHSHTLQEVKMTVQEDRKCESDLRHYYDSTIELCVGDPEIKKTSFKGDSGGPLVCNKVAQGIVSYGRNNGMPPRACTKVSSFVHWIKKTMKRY
Procedure: (§4) Inhibition constants were measured photometrically for YAMA (caspase 3), Lap3 (caspase 7), FLICE (caspase 8), Mch2 (caspase 6) and granzyme B. The buffer used for all enzymes consisted of 50 mM Hepes, 100 mM sodium chloride, 10% (v/v) sucrose, 0.1% (v/v) CHAPS and 10 mM dithiothreitol (DTT). In the case of granzyme B, only 1 mM DTT was used.
(§5) Enzymes were incubated at 37° C. for 10 minutes in 100 μL well plates and synthetic substrate and inhibitor were added simultaneously. Final substrate concentration was 20 μM in all cases. The synthetic substrate Ac-DEVD-pNA was used for all caspases and Succ-AAPD-pNA was used for granzyme B. The appearance of product was monitored over 10 minutes at 410 nm using a Spectromax 340 and IC50 curves were calculated from the initial slopes at varying inhibitor concentrations and inhibition constants were calculated.

ICE (Caspase 1) [2] = molecular target: T1, ICE (Caspase 1); assay: Human whole blood assay: IL-1β release after LPS stimulation (assay for ICE inhibition); assay type: cell-based; settings: LPS 10 or 100 ug/ml, 4 hr, ELISA, read-out: IC50 of reduction of IL1β release in whole blood assay
Source text: as §1
Heparinized whole blood (19.7 U heparin per ml) from healthy volunteers was collected and dispensed into 12×75 mm polystyrene tubes (0.25 ml per tube). The inhibitors, CQ-0010, CQ-0011 and Ac-YVAD-CHO were dissolved in DMSO, then diluted and added to the tubes in 0.25 ml and preincubated with the blood for 15 min at 37° C. LPS was then added to a final concentration of 10 or 100 ug/ml.
The tubes were loosely-capped and incubated in a water bath for 4 hr at 37° C. after which they were immersed briefly in an ice-water bath. Supernatants were harvested by centrifngation and stored at -70° C. The presence of TNFα and IL-1β was detected by commercially-available ELISA kits.

Lap3 (Mch3, Caspase 7) = molecular target: T2, Lap3 (Mch3, Caspase 7) (Homo sapiens, UniProt P55210); assay: Caspase inhibition, photometric, Ac-DEVD-pNA; assay type: biochemical; settings: 20 μM Ac-DEVD-pNA, 37° C.
T2 sequence (P55210 24-198 limits assumed): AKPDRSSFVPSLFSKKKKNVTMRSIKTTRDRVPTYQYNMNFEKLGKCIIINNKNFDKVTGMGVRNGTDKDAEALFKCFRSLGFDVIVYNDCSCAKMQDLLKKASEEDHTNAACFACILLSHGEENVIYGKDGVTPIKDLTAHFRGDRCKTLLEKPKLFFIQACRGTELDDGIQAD
T2 sequence (P55210 207-303 limits assumed): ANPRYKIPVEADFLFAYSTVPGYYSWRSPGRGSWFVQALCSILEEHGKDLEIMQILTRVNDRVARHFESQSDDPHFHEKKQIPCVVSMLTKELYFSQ
Procedure: as §4, §5

YAMA (CPP32, Caspase 3) = molecular target: T3, YAMA (CPP32, Caspase 3) (Homo sapiens, UniProt P42574); assay: Caspase inhibition, photometric, Ac-DEVD-pNA; assay type: biochemical; settings: 20 μM Ac-DEVD-pNA, 37° C.
T3 sequence (P42574 29-175 limits assumed): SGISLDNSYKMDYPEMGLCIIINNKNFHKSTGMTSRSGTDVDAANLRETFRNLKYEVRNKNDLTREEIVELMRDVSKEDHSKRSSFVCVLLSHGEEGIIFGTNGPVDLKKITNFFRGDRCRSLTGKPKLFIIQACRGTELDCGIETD
T3 sequence (P42574 176-277 limits assumed): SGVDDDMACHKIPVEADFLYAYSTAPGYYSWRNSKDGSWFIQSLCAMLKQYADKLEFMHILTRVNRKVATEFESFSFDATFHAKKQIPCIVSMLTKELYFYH
Procedure: as §4, §5

Mch2 (Caspase 6) = molecular target: T4, Mch2 (Caspase 6) (Homo sapiens, UniProt P55212); assay: Caspase inhibition, photometric, Ac-DEVD-pNA; assay type: biochemical; settings: 20 μM Ac-DEVD-pNA, 37° C.
T4 sequence (P55212 24-179 limits assumed): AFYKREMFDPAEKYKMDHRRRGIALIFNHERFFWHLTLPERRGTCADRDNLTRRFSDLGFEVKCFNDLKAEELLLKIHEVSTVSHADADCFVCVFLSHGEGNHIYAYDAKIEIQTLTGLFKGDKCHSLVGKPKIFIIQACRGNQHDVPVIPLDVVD
T4 sequence (P55212 194-293 limits assumed): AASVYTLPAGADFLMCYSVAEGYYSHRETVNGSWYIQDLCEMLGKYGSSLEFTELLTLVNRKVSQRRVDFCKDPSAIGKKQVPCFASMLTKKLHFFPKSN
Procedure: as §4, §5

FLICE (Mch5, Caspase 8) = FLICE (Mch5, Caspase 8) (Homo sapiens, UniProt Q14790); assay: Caspase inhibition, photometric, Ac-DEVD-pNA; assay type: biochemical
FLICE (Mch5, Caspase 8), sequence (Q14790 217-374 limits assumed, species assumed): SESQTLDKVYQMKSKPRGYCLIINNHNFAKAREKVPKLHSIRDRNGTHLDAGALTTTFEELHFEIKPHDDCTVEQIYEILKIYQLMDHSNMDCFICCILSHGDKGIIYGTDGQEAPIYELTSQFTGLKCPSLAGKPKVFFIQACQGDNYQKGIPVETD
FLICE (Mch5, Caspase 8), sequence (Q14790 385-479 limits assumed, species assumed): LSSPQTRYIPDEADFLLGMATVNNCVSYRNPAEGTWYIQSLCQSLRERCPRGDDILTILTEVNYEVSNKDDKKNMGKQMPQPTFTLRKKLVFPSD
Procedure: as §4, §5

TNFα = assay: THP-1 assay: TNFα levels after LPS stimulation; assay type: cell-based, human; settings: THP-1 cells, results not shown
Source text: as §1, §2, §3

[3] = 20 μM Ac-DEVD-pNA, 37° C., read-out: Ki, FLICE (Mch5, Caspase 8)

Structure (SMILES)	IC50 (ICE (Caspase 1) [1])	Ki, Granzyme (granzyme B)	IC50 (ICE (Caspase 1) [2])	Ki, Lap3 (Mch3, Caspase 7) (Lap3 (Mch3, Caspase 7))	Ki (YAMA (CPP32, Caspase 3))	Ki (Mch2 (Caspase 6))	Ki (FLICE (Mch5, Caspase 8); [3])	inhibition of IL-1β production (ICE (Caspase 1) [1]; at 5 μM, THP-1 cells (FIG. 1))	Ki (FLICE (Mch5, Caspase 8); read-out: Ki, FLICE)	effect on levels of TNFα produced (TNFα)
CC(=O)N[C@@H](Cc1ccc(O)cc1)C(=O)N[C@H](C(=O)N[C@@H](C)C(=O)N[C@H](C=O)CC(=O)O)C(C)C [Ac-YVAD-CHO, reference compound]	300 nM	Not Active	300 to 500 nM	Not Active	20000 nM	100000 nM	3700 nM	–	–	–
CC(=O)N[C@@H](Cc1ccc(O)cc1)C(=O)N[C@H](C(=O)N[C@@H](C)C(=O)NC(CC(=O)O)C(=O)c1nnc(-c2ccccc2)o1)C(C)C (stereo partly drawn) [CQ-0010, Acetyl-L-tyrosinyl-L-valyl-N-[1-[2-[(5-phenyl)-1,3,4-oxadiazolyl]carbonyl]-2-carboxy-ethyl]-L-alanine amide]	300 nM	Not Active	300 to 500 nM	Not Active	3300 nM	33000 nM	≤ 20 nM	almost completely inhibiting	≤ 20 nM	no dose-dependent effect
